According to patent publication US10745401B2, “Condensed lactam derivative” (Sumitomo Dainippon Pharma Co., Ltd., priority 2018, dated 2020):

Legend:
human 5-HT1A receptor [1] = target: T1, human 5-HT1A receptor (Homo sapiens (Human), UniProt P08908); assay: Test 2: agonist activity for human 5-HT1A receptor ([35S]GTPγS binding); format: biochemical; conditions: for EC50: [35S]GTPγS binding, concentration at which half the activity of Emax was obtained; for Emax at 10 µM: agonist activity in the presence of 10 μM of compound, relative to 100 μmol/L 5-HT
Procedure: Test 2: Evaluation of Agonist Activity for Human 5-HT1A Receptor
CHO cell membrane fraction in which human 5-HT1A receptor was expressed as used in Test 1 was purchased. To a buffer containing guanosine diphosphate were added a test compound dissolved in DMSO, each receptor membrane sample diluted with buffer, and [^35S] Guanosine 5′-O-[gamma-thio]triphosphate (GTPγS). The mixture was incubated at room temperature for 60 minutes. Then, the mixture was added quickly on a glassfiber filter plate (Multiscreen FB, Millipore, Inc.), and vacuum-filtered. Radioactivity remaining on the […] was measured with a liquid scintillation counter. Agonist activity was calculated from the following formula.

human 5-HT1A receptor [2] = target: T1, human 5-HT1A receptor; assay: Test 1: binding activity for human 5-HT1A receptor ([3H]8-OH-DPAT, CHO cell membrane fraction)
Procedure: (§1) Test 1: Evaluation of Binding Activity for Human 5-HT1A Receptor, Human 5-HT2A Receptor, and Human D2 Receptor
(§2) Binding affinity of the present compound for human 5-HT1A receptor, human 5-HT2A receptor, and human D2 receptor was measured by the following procedures.
(§3) Each mixture was incubated at room temperature for 60 minutes. Then, the mixture was added quickly on a glassfiber filter plate (Multiscreen FB, Millipore, Inc.) coated with 0.3% aqueous polyethylenimine, and vacuum-filtered. Radioactivity remaining on the filter was measured with a liquid scintillation counter (PerkinElmer, Inc.). Binding inhibition rate was calculated from the following formula.
(§4) IC50 value was calculated by Hill analysis (Physiology, 1910, 40, 190-200). Ki of each compound was calculated from the following formula. Binding inhibition constant (Ki)=IC50/(1+S/Kd) wherein S is concentration of ligand; Kd is a binding dissociation constant of ligand to membrane, which is calculated from a saturated binding experiment conducted with the same cell membrane. A small Ki value means strong binding ability to a receptor.

hERG channel = hERG channel (Homo sapiens (Human), UniProt Q12809); assay: Test 6-1: inhibitory activity for hERG channel (auto patch clamp, Qpatch); format: cell-based; conditions: whole cell auto patch clamp, hERG-CHO cells; read-out: hERG inhibition IC50
Procedure: Test 6-1: Evaluation of Inhibitory Activity for hERG Channel
Inhibitory activity of the present compound for hERG channel was measured by whole cell patch clamp method with an auto patch clamp system using CHO cells in which hERG channel involved in human rapidly activating delayed rectifier potassium current (IKr) was forcibly expressed.
hERG-CHO cells purchased from ChanTest Cop. were cultured in a CO2 incubator at 37° C., and dissociated from a flask with trypsin shortly before the measurement of hERG current, to prepare a cell suspension.
Extracellular fluid: 2 mmol/L CaCl2, 1 mmol/L MgCl2, 10 mmol/L HEPES, 4 mmol/L KCl, 145 mmol/L NaCl, 10 mmol/L Glucose
Intracellular fluid: 5.4 mmol/L CaCl2, 1.8 mmol/L MgCl2, 10 mmol/L HEPES, 31 mmol/L KOH, 10 mmol/L EGTA, 120 mmol/L KCl, 4 mmol/L Na2-ATP
Test compound solution: Test compound was dissolved in DMSO to reach the concentration of 2 mmol/L or 20 mmol/L, in order to prepare a test compound solution. […] (Measurement of Current Value and Data Analysis)
The cell suspension, the extracellular fluid, the intracellular fluid, and the measurement plate were set in the auto patch clamp system, and hERG current was measured by whole cell patch clamp method. […] Each pulse interval was 15 seconds. The data analysis was carried out with Qpatch Assay Software (Biolin Scientific). The test was carried out by applying incrementally 4 concentrations of each test compound, and the average of the maximum peak tail currents which were obtained from the last 3 stimulations in each concentration was determined as the evaluated data. Based on the current inhibition rate for a pre-applied current at each concentration of each test compound, IC50 value was calculated by Hill equation with the software.

human D2 receptor = human D2 receptor (Homo sapiens (Human), UniProt P14416); assay: Test 1: binding activity for human D2 receptor ([3H]Spiperone, CHO cell membrane fraction); conditions: human D2 receptor, [3H]Spiperone
Procedure: as §1, §2, §3
as §4, with “Ki” for “IC50 value was calculated by Hill analysis (Physiology, 1910, 40, 190-200). Ki”

[3] = Test 4: metabolic stability test in human hepatic microsome; format: in vitro ADME; conditions: 0.1 mg/mL microsome, 0.1 μmol/L compound, 37° C., 30 minutes
Procedure: Test 4: Metabolic Stability Test in Human Hepatic Microsome
The stability of the present compound in human hepatic microsome metabolism was evaluated as mentioned below. Human hepatic microsome was obtained from Xenontech. Human hepatic microsome, NADPH, and each test compound were mixed in 25 mmol/L phosphate buffer solution (pH 7.4) to reach the following concentrations as shown below, and the mixture was incubated at 37° C. for 30 minutes. • Human hepatic microsome: 0.1 mg/mL • NAPDH: 3.2 mmol/L • Test compound: 0.1 μmol/L
The residual ratio of the test compound in each sample after 30 minutes was measured by LC-MS, and the metabolic stability in human hepatic microsome was calculated from the following formula. Metabolic stability in human hepatic microsome (mL/min/mg protein)=−LN (residual ratio)/30/0.1

Chain of hERG channel (Q12809 whole entry): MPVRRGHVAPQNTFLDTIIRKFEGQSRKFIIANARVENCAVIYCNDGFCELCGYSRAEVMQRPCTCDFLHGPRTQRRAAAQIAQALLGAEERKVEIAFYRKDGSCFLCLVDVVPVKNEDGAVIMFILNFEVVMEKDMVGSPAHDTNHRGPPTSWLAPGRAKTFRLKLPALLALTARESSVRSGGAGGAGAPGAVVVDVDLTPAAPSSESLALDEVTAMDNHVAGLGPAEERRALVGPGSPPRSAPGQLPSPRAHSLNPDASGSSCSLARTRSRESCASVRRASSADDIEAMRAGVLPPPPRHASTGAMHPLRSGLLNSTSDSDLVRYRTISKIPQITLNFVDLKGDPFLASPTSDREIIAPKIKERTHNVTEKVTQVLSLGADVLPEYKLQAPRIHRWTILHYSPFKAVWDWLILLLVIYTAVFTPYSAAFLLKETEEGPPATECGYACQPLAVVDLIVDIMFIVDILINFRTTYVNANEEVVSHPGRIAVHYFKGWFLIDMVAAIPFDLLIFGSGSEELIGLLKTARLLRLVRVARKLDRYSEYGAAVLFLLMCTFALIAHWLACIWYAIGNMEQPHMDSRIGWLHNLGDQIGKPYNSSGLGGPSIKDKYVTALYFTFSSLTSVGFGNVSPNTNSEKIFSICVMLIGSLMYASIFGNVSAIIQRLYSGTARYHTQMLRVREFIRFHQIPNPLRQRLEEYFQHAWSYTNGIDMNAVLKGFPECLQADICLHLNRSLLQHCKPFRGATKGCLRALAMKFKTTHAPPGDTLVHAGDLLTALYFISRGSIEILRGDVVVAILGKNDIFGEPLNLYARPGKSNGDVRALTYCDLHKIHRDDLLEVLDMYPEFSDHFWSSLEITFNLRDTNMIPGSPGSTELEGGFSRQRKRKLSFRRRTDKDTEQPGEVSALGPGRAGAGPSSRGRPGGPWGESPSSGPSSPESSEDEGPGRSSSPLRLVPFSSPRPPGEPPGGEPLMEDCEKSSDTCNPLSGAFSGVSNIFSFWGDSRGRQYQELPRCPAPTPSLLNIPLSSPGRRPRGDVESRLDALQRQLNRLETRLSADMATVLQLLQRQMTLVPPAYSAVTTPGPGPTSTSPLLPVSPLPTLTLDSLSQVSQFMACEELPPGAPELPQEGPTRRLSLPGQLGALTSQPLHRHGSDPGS
T1 sequence (P08908 whole entry): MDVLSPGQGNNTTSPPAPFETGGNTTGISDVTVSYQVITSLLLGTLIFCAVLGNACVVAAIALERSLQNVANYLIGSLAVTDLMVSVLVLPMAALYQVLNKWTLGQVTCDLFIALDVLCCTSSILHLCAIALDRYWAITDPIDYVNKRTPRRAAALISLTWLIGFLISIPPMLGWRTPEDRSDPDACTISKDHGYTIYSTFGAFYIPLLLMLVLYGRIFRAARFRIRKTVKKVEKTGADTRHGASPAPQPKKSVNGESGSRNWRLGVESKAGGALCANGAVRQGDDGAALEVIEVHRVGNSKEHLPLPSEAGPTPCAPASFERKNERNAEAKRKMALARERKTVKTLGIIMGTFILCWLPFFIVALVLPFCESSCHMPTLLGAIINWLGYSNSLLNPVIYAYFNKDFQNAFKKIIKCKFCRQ
Chain of human D2 receptor (P14416 whole entry): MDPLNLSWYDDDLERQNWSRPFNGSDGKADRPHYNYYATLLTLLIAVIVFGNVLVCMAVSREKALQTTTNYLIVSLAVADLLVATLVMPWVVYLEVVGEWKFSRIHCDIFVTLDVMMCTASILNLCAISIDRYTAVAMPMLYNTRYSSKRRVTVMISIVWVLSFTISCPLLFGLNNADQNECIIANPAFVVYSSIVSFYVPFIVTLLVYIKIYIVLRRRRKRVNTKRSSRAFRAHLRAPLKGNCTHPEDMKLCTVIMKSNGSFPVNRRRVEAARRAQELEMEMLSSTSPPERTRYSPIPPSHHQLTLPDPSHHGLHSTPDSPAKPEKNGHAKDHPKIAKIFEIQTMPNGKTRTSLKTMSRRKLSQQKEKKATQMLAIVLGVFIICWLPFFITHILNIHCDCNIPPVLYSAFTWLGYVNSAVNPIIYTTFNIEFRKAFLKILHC

EC50 (human 5-HT1A receptor [1])	Emax at 10 µM (human 5-HT1A receptor [1])	Ki (human 5-HT1A receptor [2])	Ki (human D2 receptor)	Metabolic stability in human hepatic microsome [3]	SMILES	IC50 (hERG channel)
43.8 nM	64%	11.3 nM	309 nM	0.102 mL/min/mg protein	Cc1nc(C)c2c(=O)n(CCN3CCC(c4noc5ccccc45)CC3)ccc2n1 [Example 114, 6-{2-[4-(1,2-Benzoisoxazol-3-yl)piperidin-1-yl]ethyl}-2,4-dimethylpyrido[4,3-d]pyrimidin-5(6H)-one]	2700 nM
2.08 nM	61%	0.23 nM	993 nM	0.074 mL/min/mg protein	Cc1nc2c(o1)CCN(CCN1CCN(c3nsc4ccccc34)CC1)C2=O [Example 51]	5100 nM
6.14 nM	54%	1.4 nM	62 nM	<0.05 mL/min/mg protein	Cc1cc2c(cn1)C(=O)N(CCN1CCC(c3noc4ccccc34)CC1)CC2 [Example 135]	700 nM
	76%	0.12 nM	94 nM	0.458 mL/min/mg protein	Cc1nccc2c1C(=O)N(CCN1CCC(c3noc4ccccc34)CC1)CC2 [Example 87]	500 nM
72.7 nM	48%	20.3 nM	635 nM	<0.05 mL/min/mg protein	Cc1nc(C)c2c(n1)CCN(CCN1CCC(c3noc4ccccc34)CC1)C2=O [Example 139]	3800 nM
7.67 nM	64%	0.08 nM	244 nM	0.210 mL/min/mg protein	[2H]C([2H])([2H])Oc1cc2c(cn1)C(=O)N(CCN1CCN(c3nsc4ccccc34)CC1)CC2([2H])[2H] [Example 107, 2-{2-[4-(1,2-Benzoisothiazol-3-yl)piperazin-1-yl]ethyl}-6-[(^2H3)methyloxy] (4,4-^2H2)-3,4-dihydro-2,7-naphthyridin-1(2H)-one]	1700 nM
56.9 nM	48%	35.7 nM	203 nM	<0.05 mL/min/mg protein	O=C1c2occc2CCN1CCN1CCC(c2noc3ccccc23)CC1 [Example 127]	600 nM
4.13 nM	35%	6.48 nM	472 nM	0.018 mL/min/mg protein	O=C1c2cn(C3CC3)nc2CCN1CCN1CCC(c2noc3ccccc23)CC1 [Example 76]	< 270 nM
78.2 nM	67%	8.68 nM	841 nM	0.357 mL/min/mg protein	CC(C)c1nc2c(o1)C(=O)N(CCN1CCN(c3nsc4ccccc34)CC1)CC2 [Example 66]	2100 nM
2.1 nM	72%	0.9 nM	222 nM	0.126 mL/min/mg protein	Cc1c2c(nn1C)CCN(CCN1CCN(c3nsc4ccccc34)CC1)C2=O [Example 65]	4400 nM
5.14 nM	59%	1.25 nM	825 nM	0.038 mL/min/mg protein	Cn1cc2c(n1)C(=O)N(CCN1CCN(c3nsc4ccccc34)CC1)CC2 [Example 50]	8500 nM
23.5 nM	57%	2.19 nM	119 nM	0.100 mL/min/mg protein	Cn1cc2c(n1)CCCN(CCN1CCN(c3nsc4ccccc34)CC1)C2=O [Example 42]	2400 nM
55 nM	61%	13.8 nM	508 nM	0.196 mL/min/mg protein	CC(C)n1cc2c(n1)CCN(CCN1CCN(c3nsc4ccccc34)CC1)C2=O [Example 162]	1200 nM
570 nM	40%	36.6 nM	1740 nM	<0.05 mL/min/mg protein	O=c1c2ncccc2ccn1CCN1CCN(c2noc3ccccc23)CC1 [Example 117]	4400 nM
221 nM	41%	65.3 nM	310 nM	<0.05 mL/min/mg protein	Cn1cnc2c1C(=O)N(CCN1CCC(c3noc4ccccc34)CC1)CCC2 [Example 134]	3500 nM
30.6 nM	40%	5.1 nM	248 nM	<0.05 mL/min/mg protein	COc1ncc2c(n1)CCN(CCN1CCC(c3noc4ccccc34)CC1)C2=O [Example 176]	1000 nM
6.7 nM	68%	0.75 nM	690 nM	0.378 mL/min/mg protein	COc1cc2c(cn1)CCN(CCN1CCN(c3nsc4ccccc34)CC1)C2=O [Example 19]	5200 nM
300 nM	40%	18.6 nM	34000 nM	<0.01 mL/min/mg protein	Cn1cnc2c1CCN(CCN1CCC(c3noc4ccccc34)CC1)C2=O [Example 16]	> 10000 nM
0.84 nM	60%	0.14 nM	71 nM	0.413 mL/min/mg protein	Cc1cc2c(n1C)CCCN(CCN1CCN(c3nsc4ccccc34)CC1)C2=O [Example 167]	1800 nM
290 nM	26%	327 nM	914 nM	<0.05 mL/min/mg protein	Cn1cnc2c1C(=O)N(CCN1CCC(c3noc4ccccc34)CC1)CC2 [Example 133]	4700 nM
191 nM	69%	17.4 nM	430 nM	0.064 mL/min/mg protein	CCn1ncc2c1CCN(CCN1CCN(c3nsc4ccccc34)CC1)C2=O [Example 64]	7700 nM
55.4 nM	58%	6.04 nM	230 nM	0.048 mL/min/mg protein	O=C1c2ncccc2CCN1CCN1CCN(c2nsc3cc(F)ccc23)CC1 [Example 27]	1300 nM
308 nM	44%	21.9 nM	> 10000 nM	<0.05 mL/min/mg protein	Cc1ccc2c(n1)C(=O)N(CCN1CCN(c3noc4ccccc34)CC1)CC2 [Example 183]	> 3000 nM
